Legend:
[1] = Vinyl ether homopolymerization PDSC with and without EDMAB (Table 2)
From the text: For the experiments reported in Table 2, the photopolymerization of various vinyl ethers with and without the use of an electron donor to promote the reaction are reported. Data showing runs where EDMAB was used to promote the reaction are shown in parentheses after the numbers corresponding to runs without EDMAB.

Work on `C=COCC1CO1` (stereo not shown) [GVE, glycidyl vinyl ether] yielded a Rate Constant k ([1]; with EDMAB) of 0.8 min⁻¹ and a Rate Constant k ([1]; without EDMAB) of 1.1 min⁻¹.

In the case of `C=COCCOCCOCCOC=C` [TEGDVE, tri(ethylene glycol)divinyl ether], the Rate Constant k ([1]; with EDMAB) is reported as 11.1 min⁻¹ and the Rate Constant k ([1]; without EDMAB) is reported as 2.1 min⁻¹.

With `C=COCCOCCOC=C` [DEGDVE, di(ethylene glycol)divinyl ether] the Rate Constant k ([1]; with EDMAB) was 1.4 min⁻¹ and the Rate Constant k ([1]; without EDMAB) was 1.3 min⁻¹.

With hexanediol divinyl ether [HDDVE] the Rate Constant k ([1]; with EDMAB) was 15.5 min⁻¹ and the Rate Constant k ([1]; without EDMAB) was 1.4 min⁻¹.

Compound `C=COCCCCO` [BDVE, butanediol vinyl ether] has a Rate Constant k ([1]; with EDMAB) of 3.6 min⁻¹ and a Rate Constant k ([1]; without EDMAB) of 1.1 min⁻¹.

In the case of `CCC(=O)OCC1(CC)COC2(OC1)OCC(CC)(COC(=O)CC)CO2` (stereo not shown) [DEDPM, 3,9-Diethyl-3,9-dipropionyloxymethyl-1,5,7,11-tetraoxaspiro[5.5]undecane], the melting point is reported as 68.1 °C.

`C=COCC1CCC(COC=C)CC1` (stereo not shown) [CHDMDVE, 1,4-cyclohexanedimethanol divinyl ether] gave a Rate Constant k ([1]; with EDMAB) of 2.8 min⁻¹ and a Rate Constant k ([1]; without EDMAB) of 0.5 min⁻¹.

In the case of `FC(F)(F)C1CCOC2(OCCC(C(F)(F)F)O2)O1` (stereo not shown) [DTFM, 2,8-Ditrifluoromethyl-1,5,7,11-tetraoxaspiro[5.5]undecane], the melting point is reported as 122.4 °C.

With `C=COCCOC=C` [EGDVE, ethylene glycol divinyl ether] the Rate Constant k ([1]; with EDMAB) was 10.6 min⁻¹ and the Rate Constant k ([1]; without EDMAB) was 3.6 min⁻¹.
